Experimental findings from publication PMC10853903 (Analytical Chemistry, 2024) are described below.

The target of this test is agglutinin 120 from Ricinus communis (RCA120) (Ricinus communis, UniProt P06750). Kind of test: biochemical. It is filed as binding.

In turn, `CO[C@@H]1O[C@H](CO)[C@H](O)[C@H](O)[C@H]1O` [methyl-β-D-galactoside] registered a Kd of 271 µM.

A word on the Kd: it is the constant that tells how readily two partners part at equilibrium. Read a high Kd as a looser complex.
